Drawing on patent US20240174662A1, “SMALL MOLECULE INHIBITORS OF SALT INDUCIBLE KINASES” (Janssen Biotech, Inc., priority 2021, published 2024), this text covers IC50 for 29 molecules.

One may read the IC50 as the concentration that gives 50% inhibition.

Molecules are shown by their SMILES. A value given as a limit tells only on which side of the number the result lay.

In the assay the target is SIK2 (Homo sapiens (Human), UniProt Q9H0K1). Put plainly: SIK2 Enzymatic Assay Version 2 (High ATP). Format: biochemical. The conditions noted are these: 3 mM ATP and 200 μM HDAC5tide final, ADP-Glo Max luminescence. The gist of the method:
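Luminescent ADP-Glo Max read-out: depletion reagent 2 h, then detection reagent 1 h. Before the reaction, compounds were incubated 30 min with enzyme added at 6 nM (twice final concentration), with all steps at room temperature.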
(In general: ADP-Glo turns the ADP formed in a reaction into a luminescent signal.)

Sequence of SIK2 (Q9H0K1 whole entry, species assumed): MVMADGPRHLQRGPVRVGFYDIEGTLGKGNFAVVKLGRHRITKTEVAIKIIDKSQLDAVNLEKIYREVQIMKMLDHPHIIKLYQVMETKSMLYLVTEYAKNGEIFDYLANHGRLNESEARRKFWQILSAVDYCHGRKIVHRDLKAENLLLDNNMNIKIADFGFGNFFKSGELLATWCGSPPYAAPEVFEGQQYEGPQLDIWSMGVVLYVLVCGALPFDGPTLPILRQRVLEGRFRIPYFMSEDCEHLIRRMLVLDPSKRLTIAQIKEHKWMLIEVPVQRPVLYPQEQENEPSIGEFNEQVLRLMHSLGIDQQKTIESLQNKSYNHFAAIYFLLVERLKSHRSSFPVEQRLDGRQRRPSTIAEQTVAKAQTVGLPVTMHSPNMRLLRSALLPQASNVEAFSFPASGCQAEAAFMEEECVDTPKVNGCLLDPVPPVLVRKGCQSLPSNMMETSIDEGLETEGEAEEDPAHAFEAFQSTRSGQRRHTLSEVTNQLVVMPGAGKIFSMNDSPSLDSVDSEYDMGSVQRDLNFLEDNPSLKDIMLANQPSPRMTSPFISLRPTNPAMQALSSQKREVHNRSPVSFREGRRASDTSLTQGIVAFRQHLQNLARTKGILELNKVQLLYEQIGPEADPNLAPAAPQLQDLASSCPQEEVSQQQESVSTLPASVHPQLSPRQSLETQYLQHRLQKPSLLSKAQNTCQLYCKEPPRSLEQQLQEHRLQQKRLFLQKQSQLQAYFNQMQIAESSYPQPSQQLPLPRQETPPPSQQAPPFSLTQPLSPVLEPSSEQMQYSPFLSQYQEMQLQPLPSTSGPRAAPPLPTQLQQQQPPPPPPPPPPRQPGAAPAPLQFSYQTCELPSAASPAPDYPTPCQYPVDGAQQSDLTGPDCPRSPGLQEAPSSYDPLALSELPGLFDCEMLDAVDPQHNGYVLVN

The molecule `COC1(COc2noc(C)c2-c2ccn3nc(Nc4cnccn4)cc3c2)CNC1` [Example 318, 5-[3-[(3-methoxyazetidin-3-yl)methoxy]-5-methyl-isoxazol-4-yl]-N-pyrazin-2-yl-pyrazolo[1,5-a]pyridin-2-amine] yielded an IC50 of 13.5 nM. For the molecule `CN1CC[C@@H]1COc1cnn(C)c1-c1ccn2nc(NC(=O)[C@@H]3C[C@@H]3c3ccccc3)cc2c1` (mixture of isomers) [Example 473, cis-N-[5-[2-methyl-4-[(1-methylazetidin-2-yl)methoxy]pyrazol-3-yl]pyrazolo[1,5-a]pyridin-2-yl]-2-phenyl-cyclopropanecarboxamide], the IC50 was found to be 113 nM. Regarding `CN1CC[C@@H]1COc1cnn(C)c1-c1ccn2nc(Nc3cnc(C(=O)NCC(C)(C)O)cn3)cc2c1` [Example 132, N-(2-hydroxy-2-methyl-propyl)-5-[[5-[2-methyl-4-[[(2R)-1-methylazetidin-2-yl]methoxy]pyrazol-3-yl]pyrazolo[1,5-a]pyridin-2-yl]amino]pyrazine-2-carboxamide], half-maximal inhibition (IC50) was put at 8.9 nM. Take `CN1CC[C@@H]1COc1cnn(C)c1-c1ccn2nc(NC(=O)[C@H]3C[C@H]3c3ccccc3)cc2c1` [Example 158, (1S,2R)—N-[5-[2-methyl-4-[[(2R)-1-methylazetidin-2-yl]methoxy]pyrazol-3-yl]pyrazolo[1,5-a]pyridin-2-yl]-2-phenyl-cyclopropanecarboxamide]: the IC50 was found to be 47.7 nM.

With `C[C@@H]1CNC[C@@H]1Oc1cnn(C)c1-c1ccn2nc(NC(=O)C3CC3)cc2c1` (single isomer, unassigned) [Example 238, (3*R, 4*R)—N-[5-[2-methyl-4-(4-methylpyrrolidin-3-yl)oxy-pyrazol-3-yl]pyrazolo[1,5-a]pyridin-2-yl]cyclopropanecarboxamide], it took 34.8 nM to reach half-maximal inhibition (IC50).

The molecule `C[C@@H]1CNC[C@@H]1OCc1cnn(C)c1-c1ccn2nc(NC(=O)C3CC3)cc2c1` (single isomer, unassigned) [Example 196, (3*R, 4*R)—N-[5-[2-methyl-4-[(4-methylpyrrolidin-3-yl)oxymethyl]pyrazol-3-yl]pyrazolo[1,5-a]pyridin-2-yl]cyclopropanecarboxamide] displayed an IC50 of 24.7 nM. In turn, `Cc1cc(Nc2cc3cc(-c4c(O[C@@H]5CNC[C@@H]5F)noc4C)ccn3n2)nnc1C` [Example 93, N-(5,6-dimethylpyridazin-3-yl)-5-[3-[(3R,4S)-4-fluoropyrrolidin-3-yl]oxy-5-methyl-isoxazol-4-yl]pyrazolo[1,5-a]pyridin-2-amine] displayed an IC50 of 4.7 nM.

For `[2H]C([2H])([2H])N1CC[C@@H]1COc1cnn(C([2H])([2H])[2H])c1-c1ccn2nc(Nc3cc(C)nc(C)n3)cc2c1` [Example 355, N-(2,6-dimethylpyrimidin-4-yl)-5-[2-(trideuteriomethyl)-4-[[(2R)-1-(trideuteriomethyl)azetidin-2-yl]methoxy]pyrazol-3-yl]pyrazolo[1,5-a]pyridin-2-amine], the 50% inhibitory concentration (IC50) is below 0.847 nM. `Cc1onc(OC[C@@H]2CCN2C)c1-c1ccn2nc(NC(=O)C3CC3)cc2c1` [Example 498] displayed a half-maximal inhibitory concentration (IC50) of 232 nM.

In the case of `Cc1onc(OC[C@@H]2CCCCN2C)c1-c1ccn2nc(NC(=O)C3CC3)cc2c1` [Example 501, N-[5-[5-methyl-3-[[(2S)-1-methyl-2-piperidyl]methoxy]isoxazol-4-yl]pyrazolo[1,5-a]pyridin-2-yl]cyclopropanecarboxamide], the concentration for half-maximal inhibition (IC50) stood at 355 nM. In turn, `CCN1CC[C@@H]1COc1cnn(C)c1-c1ccn2nc(Nc3cc(C)c(C)nn3)cc2c1` [Example 18, (R)—N-(5,6-Dimethylpyridazin-3-yl)-5-(4-((1-ethylazetidin-2-yl)methoxy)-1-methyl-1H-pyrazol-5-yl)pyrazolo[1,5-a]pyridin-2-amine] registered a concentration for half-maximal inhibition (IC50) of 1 nM. The same measure for `COc1cnc(Nc2cc3cc(-c4c(OC[C@H]5CCN5C)cnn4C)ccn3n2)cn1` [Example 154, N-(5-methoxypyrazin-2-yl)-5-[2-methyl-4-[[(2R)-1-methylazetidin-2-yl]methoxy]pyrazol-3-yl]pyrazolo[1,5-a]pyridin-2-amine]: 7.9 nM. In turn, `Cc1cc(Nc2cc3cc(-c4c(OC[C@H]5CCN5C)cnn4C)ccn3n2)nc(NC2CCCC2)n1` [Example 129, N2-cyclopentyl-6-methyl-N4-[5-[2-methyl-4-[[(2R)-1-methylazetidin-2-yl]methoxy]pyrazol-3-yl]pyrazolo[1,5-a]pyridin-2-yl]pyrimidine-2,4-diamine] displayed a half-maximal inhibitory concentration (IC50) below 0.847 nM. For `CN1CC[C@H](Oc2cnn(C)c2-c2ccn3nc(Nc4ccc(C(F)(F)F)cn4)cc3c2)C1` [Example 339, 5-[2-methyl-4-[(3S)-1-methylpyrrolidin-3-yl]oxy-pyrazol-3-yl]-N-[5-(trifluoromethyl)-2-pyridyl]pyrazolo[1,5-a]pyridin-2-amine], half-maximal inhibition (IC50) was put at 68.5 nM. The molecule `CN1CC(C)(C)[C@H]1COc1cnn(C)c1-c1ccn2nc(NC(=O)C3CC3)cc2c1` [Example 3, N-[5-[2-methyl-4-[[(2S)-1,3,3-trimethylazetidin-2-yl]methoxy]pyrazol-3-yl]pyrazolo[1,5-a]pyridin-2-yl]cyclopropanecarboxamide] returned an IC50 of 8.5 nM. The molecule `Cn1ncc(OC[C@H]2CCN2)c1-c1ccn2nc(NC(=O)C3CC3)cc2c1` [Example 346, (R)—N-(5-(4-(azetidin-2-ylmethoxy)-1-methyl-1H-pyrazol-5-yl)pyrazolo[1,5-a]pyridin-2-yl)cyclopropanecarboxamide] showed a half-inhibitory concentration (IC50) of 58.9 nM. Consider `CO[C@H]1CNC[C@H]1Oc1noc(C)c1-c1ccn2nc(Nc3cc(C)c(C)nn3)cc2c1` [Example 95, N-(5,6-dimethylpyridazin-3-yl)-5-[3-[(3R,4S)-4-methoxypyrrolidin-3-yl]oxy-5-methyl-isoxazol-4-yl]pyrazolo[1,5-a]pyridin-2-amine], for which the IC50 turned out to be 5.3 nM. The same measure for `CCN1CC[C@@H]1COc1cnn(C)c1-c1ccn2nc(Nc3cc(C)nc(C(F)(F)F)n3)cc2c1` [Example 73, 5-[4-[[(2R)-1-ethylazetidin-2-yl]methoxy]-2-methyl-pyrazol-3-yl]-N-[6-methyl-2-(trifluoromethyl)pyrimidin-4-yl]pyrazolo[1,5-a]pyridin-2-amine]: below 0.847 nM; for `Cc1cnc(Nc2cc3cc(-c4c(O[C@@H]5CN[C@H](C)C5)noc4C)ccn3n2)cn1` [Example 322, 5-[5-methyl-3-[(3S,5R)-5-methylpyrrolidin-3-yl]oxy-isoxazol-4-yl]-N-(5-methylpyrazin-2-yl)pyrazolo[1,5-a]pyridin-2-amine]: 46.3 nM; for `Cc1cc(Nc2cc3cc(-c4c(OC[C@@]5(F)CCNC5)cnn4C(F)F)ccn3n2)nc(C)n1` (single isomer, unassigned) [Example 262, (*R)-5-(1-(difluoromethyl)-4-((3-fluoropyrrolidin-3-yl)methoxy)-1H-pyrazol-5-yl)-N-(2,6-dimethylpyrimidin-4-yl)pyrazolo[1,5-a]pyridin-2-amine]: 4.7 nM. The same measure for `CN1CC[C@H](Oc2cnn(C)c2-c2ccn3nc(Nc4ccn5nccc5n4)cc3c2)C1` [Example 268, N-[5-[2-methyl-4-[(3S)-1-methylpyrrolidin-3-yl]oxy-pyrazol-3-yl]pyrazolo[1,5-a]pyridin-2-yl]pyrazolo[1,5-a]pyrimidin-5-amine]: 36.5 nM. As for `CCN1CC[C@@H]1COc1cnn(C)c1-c1ccn2nc(Nc3cnc(OC(F)F)cn3)cc2c1` [Example 181, N-[5-(difluoromethoxy)pyrazin-2-yl]-5-[4-[[(2R)-1-ethylazetidin-2-yl]methoxy]-2-methyl-pyrazol-3-yl]pyrazolo[1,5-a]pyridin-2-amine], the half-inhibitory concentration (IC50) was 2.2 nM. `Cc1cnc(Nc2cc3cc(-c4c(OC[C@H]5CCN5CCF)cnn4C)ccn3n2)cn1` [Example 279, 5-[4-[[(2R)-1-(2-fluoroethyl)azetidin-2-yl]methoxy]-2-methyl-pyrazol-3-yl]-N-(5-methylpyrazin-2-yl)pyrazolo[1,5-a]pyridin-2-amine] came in with a concentration for half-maximal inhibition (IC50) of 1.8 nM. The result for `Cc1cc(Nc2cc3cc(-c4c(OC[C@H]5CCN5C)noc4C)ccn3n2)nc(C)n1` [Example 91, N-(2,6-dimethylpyrimidin-4-yl)-5-[5-methyl-3-[[(2R)-1-methylazetidin-2-yl]methoxy]isoxazol-4-yl]pyrazolo[1,5-a]pyridin-2-amine] reads 6.4 nM; that for `Cc1onc(OC[C@@H](c2ccccc2F)N(C)C)c1-c1ccn2nc(NC(=O)C3CC3)cc2c1` [Example 222, N-[5-[3-[(2R)-2-(dimethylamino)-2-(2-fluorophenyl)ethoxy]-5-methyl-isoxazol-4-yl]pyrazolo[1,5-a]pyridin-2-yl]cyclopropanecarboxamide], 27.5 nM. Turning to `CN1CC[C@@H]1COc1cnn(C)c1-c1ccn2nc(Nc3ccc(C(=O)NCC(C)(C)C#N)cn3)cc2c1` [Example 36, N-(2-cyano-2-methyl-propyl)-6-[[5-[2-methyl-4-[[(2R)-1-methylazetidin-2-yl]methoxy]pyrazol-3-yl]pyrazolo[1,5-a]pyridin-2-yl]amino]pyridine-3-carboxamide], the IC50 stood at 10.3 nM. `Cc1cc(Nc2cc3cc(-c4c(OC[C@H]5CCN5C)cnn4C)ccn3n2)nnc1C` [Example 17, N-(5,6-Dimethylpyridazin-3-yl)-5-[2-methyl-4-[[(2R)-1-methylazetidin-2-yl]methoxy]pyrazol-3-yl]pyrazolo[1,5-a]pyridin-2-amine] came in with a half-maximal inhibitory concentration (IC50) below 0.847 nM. In turn, `CN1CC[C@@H](OCc2cnn(C)c2-c2ccn3nc(NC(=O)C4CC4)cc3c2)C1` [Example 362, N-[5-[2-methyl-4-[[(3R)-1-methylpyrrolidin-3-yl]oxymethyl]pyrazol-3-yl]pyrazolo[1,5-a]pyridin-2-yl]cyclopropanecarboxamide] gave a 50% inhibitory concentration (IC50) of 52.8 nM.

`COC1(COc2noc(C)c2-c2ccn3nc(NC(=O)C4CC4)cc3c2)CNC1` [Example 76, N-[5-[3-[(3-methoxyazetidin-3-yl)methoxy]-5-methyl-isoxazol-4-yl]pyrazolo[1,5-a]pyridin-2-yl]cyclopropanecarboxamide]: inhibition was half-maximal at 12.2 nM (IC50).
